Results from patent US20060034889A1, “Biodegradable diblock copolymers having reverse thermal gelation properties and methods of use thereof” (MacroMed, Inc., priority 2004, published 2006).

Conditions: 30% by weight aqueous PLG-PEG diblock copolymer solutions or gels, 120 days, 5 °C and 37 °C

With `CC(=O)O[C@H]1C(=O)[C@@]2(C)[C@H]([C@H](OC(=O)c3ccccc3)[C@]3(O)C[C@H](OC(=O)[C@H](O)[C@@H](NC(=O)c4ccccc4)c4ccccc4)C(C)=C1C3(C)C)[C@]1(OC(C)=O)CO[C@@H]1C[C@@H]2O` [paclitaxel] as the molecule, how does the “drug intact after storage” value read?
The value was “greater than 85%”.
